{"source": "ChEMBL document CHEMBL4715849", "about": "“Recent Progress in the Discovery of Antifungal Agents Targeting the Cell Wall” (J Med Chem, 2020)", "key": {"[1]": {"test": "Toxicity in iv dosed mouse", "assay_type": "organism-based", "details": "in vivo"}, "Candida albicans [2]": {"tested_on": "Candida albicans", "test": "Antifungal activity against Candida albicans AMB-25 incubated for 48 hrs by serial two-fold dilution method", "assay_type": "functional"}, "[3]": {"test": "Inhibition of Candida albicans AMB-25 glucosamine-6-phosphate synthase using glutamine as substrate incubated for 30 mins"}, "[4]": {"test": "Competitive inhibition of Candida albicans AMB-25 glucosamine synthetase using glutamine as substrate incubated for 30 mins by Lineweaver-Burk plot based Dixon plot analysis"}, "Candida albicans [5]": {"tested_on": "Candida albicans", "test": "Antifungal activity against Candida albicans infected in mouse assessed as protection against fungus-induced lethal infection", "assay_type": "functional", "details": "read-out: PD50"}, "Candida albicans [6]": {"tested_on": "Candida albicans", "test": "Antifungal activity against Candida albicans A9540 infected in iv dosed ICR mouse assessed as protection against fungus-induced lethal infection dosed thrice at 48 hrs interval immediately following fungal challenge and measured on day 20 post infection by Litchfield -Wilcoxon method", "assay_type": "functional", "details": "480 h, time 20 day, read-out: PD50"}, "[7]": {"test": "Solubility in water at pH 7.2", "assay_type": "physicochemical"}, "Aspergillus fumigatus [8]": {"tested_on": "Aspergillus fumigatus", "test": "Antifungal activity against Aspergillus fumigatus IAM2034 infected in iv dosed ICR mouse assessed as protection against fungus-induced lethal infection dosed thrice at 48 hrs interval immediately following fungal challenge and measured on day 20 post infection by Litchfield -Wilcoxon method", "assay_type": "functional", "details": "480 h, time 20 day, read-out: PD50"}, "[9]": {"tested_on": "Trichophyton mentagrophytes", "test": "Antifungal activity against Trichophyton mentagrophytes D155 incubated for 40 hrs by serial agar dilution method", "assay_type": "functional"}, "Candida albicans [10]": {"tested_on": "Candida albicans", "test": "Antifungal activity against Candida albicans IAM 888 incubated for 40 hrs by serial agar dilution method", "assay_type": "functional"}, "Candida albicans [11]": {"tested_on": "Candida albicans", "test": "Antifungal activity against Candida albicans A9540 infected in iv dosed ICR mouse assessed as protection against fungus-induced lethal infection dosed once immediately following fungal challenge and measured on day 20 post infection", "assay_type": "functional", "details": "480 h, time 20 day, read-out: PD50"}, "Fusarium verticillioides": {"tested_on": "Fusarium verticillioides", "test": "Antifungal activity against Fusarium monoliforme A2284 incubated for 40 hrs by serial agar dilution method", "assay_type": "functional"}, "Scedosporium boydii": {"tested_on": "Scedosporium boydii", "test": "Antifungal activity against Petriellidium boydii IFO8078 incubated for 40 hrs by serial agar dilution method", "assay_type": "functional"}, "Aspergillus flavus [12]": {"tested_on": "Aspergillus flavus", "test": "Antifungal activity against Aspergillus flavus FA21436 NRRL 484 incubated for 40 hrs by serial agar dilution method", "assay_type": "functional"}, "Cryptococcus neoformans [13]": {"tested_on": "Cryptococcus neoformans", "test": "Antifungal activity against Cryptococcus neoformans IAM4514 incubated for 40 hrs by serial agar dilution method", "assay_type": "functional"}, "Sporothrix schenckii": {"tested_on": "Sporothrix schenckii", "test": "Antifungal activity against Sporothrix schenckii IFO8158 incubated for 40 hrs by serial agar dilution method", "assay_type": "functional"}, "Cryptococcus neoformans [14]": {"tested_on": "Cryptococcus neoformans", "test": "Antifungal activity against Cryptococcus neoformans D49 incubated for 40 hrs by serial agar dilution method", "assay_type": "functional"}, "Aspergillus fumigatus [15]": {"tested_on": "Aspergillus fumigatus", "test": "Antifungal activity against Aspergillus fumigatus IAM2034 incubated for 40 hrs by serial agar dilution method", "assay_type": "functional"}, "Candida albicans [16]": {"tested_on": "Candida albicans", "test": "Antifungal activity against Candida albicans A9540 incubated for 40 hrs by serial agar dilution method", "assay_type": "functional"}, "Aspergillus fumigatus [17]": {"tested_on": "Aspergillus fumigatus", "test": "Antifungal activity against Aspergillus fumigatus IAM2530 incubated for 40 hrs by serial agar dilution method", "assay_type": "functional"}, "[18]": {"tested_on": "Trichophyton mentagrophytes", "test": "Antifungal activity against Trichophyton mentagrophytes N0.4329 incubated for 40 hrs by serial agar dilution method", "assay_type": "functional"}, "Blastomyces dermatitidis": {"tested_on": "Blastomyces dermatitidis", "test": "Antifungal activity against Blastomyces dermatitidis IFO8144 incubated for 40 hrs by serial agar dilution method", "assay_type": "functional"}, "[19]": {"test": "Inhibition of Saccharomyces cerevisiae CGMCC 2.145 CHS using UDP-GlcNAc as substrate incubated for 60 min by WGA-HRP tracer based method"}, "Candida tropicalis": {"tested_on": "Candida tropicalis", "test": "Antifungal activity against Candida tropicalis incubated for 24 hrs by serial 2-fold dilution method", "assay_type": "functional"}, "Candida albicans [20]": {"tested_on": "Candida albicans", "test": "Antifungal activity against Candida albicans incubated for 24 hrs by serial 2-fold dilution method", "assay_type": "functional"}, "Nakaseomyces glabratus": {"tested_on": "Nakaseomyces glabratus", "test": "Antifungal activity against Candida glabrata incubated for 24 hrs by serial 2-fold dilution method", "assay_type": "functional"}, "Aspergillus fumigatus [21]": {"tested_on": "Aspergillus fumigatus", "test": "Antifungal activity against Aspergillus fumigatus CF1083 incubated for 1 day by NCCLS M27-A2 microdilution method", "assay_type": "functional", "details": "CF1083, 24 h"}, "Aspergillus fumigatus [22]": {"tested_on": "Aspergillus fumigatus", "test": "Antifungal activity against Aspergillus fumigatus CF1003 incubated for 1 day by NCCLS M27-A2 microdilution method", "assay_type": "functional", "details": "CF1003, 24 h"}, "Candida albicans [23]": {"tested_on": "Candida albicans", "test": "Antifungal activity against Candida albicans CY1123 incubated for 1 day by NCCLS M27-A2 microdilution method", "assay_type": "functional", "details": "CY1123, 24 h"}, "Candida albicans [24]": {"tested_on": "Candida albicans", "test": "Antifungal activity against Candida albicans ATCC2001 incubated for 2 day by NCCLS M27-A2 microdilution method", "assay_type": "functional", "details": "ATCC2001, 48 h"}, "[25]": {"test": "Inhibition of Candida albicans IFO1060 1,3-beta-D-glucan synthase using UDP-[6-3H]-glucose as substrate incubated for 30 mins by radioactivity"}, "Candida albicans [26]": {"tested_on": "Candida albicans", "test": "Antifungal activity against Candida albicans CY3003 incubated for 1 day by NCCLS M27-A2 microdilution method", "assay_type": "functional", "details": "CY3003, 24 h"}, "Candida albicans [27]": {"tested_on": "Candida albicans", "test": "Antifungal activity against Candida albicans ATCC 48130 incubated for 1 day by NCCLS M27-A2 microdilution method", "assay_type": "functional", "details": "ATCC 48130, 24 h"}, "Aspergillus fumigatus [28]": {"tested_on": "Aspergillus fumigatus", "test": "Antifungal activity against Aspergillus fumigatus CF924390 incubated for 1 day by NCCLS M27-A2 microdilution method", "assay_type": "functional", "details": "CF924390, 24 h"}, "Candida albicans [29]": {"tested_on": "Candida albicans", "test": "Antifungal activity against Candida albicans CY1124 incubated for 1 day by NCCLS M27-A2 microdilution method", "assay_type": "functional", "details": "CY1124, 24 h"}, "Candida albicans [30]": {"tested_on": "Candida albicans", "test": "Antifungal activity against Candida albicans IFO0005 incubated for 3 day by NCCLS M27-A2 microdilution method", "assay_type": "functional", "details": "IFO0005, 72 h"}, "Cryptococcus neoformans [31]": {"tested_on": "Cryptococcus neoformans", "test": "Antifungal activity against Cryptococcus neoformans ATCC 32719 incubated for 24 hrs", "assay_type": "functional"}, "Aspergillus fumigatus [32]": {"tested_on": "Aspergillus fumigatus", "test": "Antifungal activity against Aspergillus fumigatus GIMCC 3.19 incubated for 24 hrs", "assay_type": "functional"}, "Candida albicans [33]": {"tested_on": "Candida albicans", "test": "Antifungal activity against Candida albicans CMCC 76615 incubated for 24 hrs", "assay_type": "functional"}, "Aspergillus flavus [34]": {"tested_on": "Aspergillus flavus", "test": "Antifungal activity against Aspergillus flavus ATCC 16870 incubated for 24 hrs", "assay_type": "functional"}}}
{"smiles": "CCC[C@H](N)C(=O)N[C@@H](CNC(=O)/C=C/C(=O)OC)C(=O)O", "values": [{"measurement": "LD50", "setting": "[1]", "value": "> 300", "unit": "mg/kg"}, {"measurement": "MIC", "setting": "Candida albicans [2]", "value": 0.4, "unit": "µg/mL"}]}
{"smiles": "COC(=O)/C=C/C(=O)NC[C@H](N)C(=O)O", "values": [{"measurement": "IC50", "setting": "[3]", "value": 4.03, "unit": "µg/mL"}, {"measurement": "MIC", "setting": "Candida albicans [2]", "value": "> 200", "unit": "µg/mL"}, {"measurement": "Ki", "setting": "[4]", "value": 100, "unit": "nM"}]}
{"smiles": "COc1cc(O)c2c(c1)C(=O)c1c(cc3c(c1O)-c1c(cc(C)c(C(=O)N[C@H](CO)C(=O)O)c1O)[C@H](O[C@@H]1O[C@H](C)[C@H](N(C)C)[C@H](O[C@@H]4OC[C@@H](O)[C@H](O)[C@H]4O)[C@H]1O)[C@H]3O)C2=O", "values": [{"measurement": "ED50", "setting": "Candida albicans [5]", "value": 50, "unit": "mg/kg"}, {"measurement": "ED50", "setting": "Candida albicans [6]", "value": 15, "unit": "mg/kg"}, {"measurement": "solubility", "setting": "[7]", "value": "> 20", "unit": "mg/mL"}, {"measurement": "ED50", "setting": "Aspergillus fumigatus [8]", "value": 23, "unit": "mg/kg"}]}
{"smiles": "CN[C@@H]1[C@H](O[C@@H]2OC[C@@H](O)[C@H](O)[C@H]2O)[C@@H](O)[C@H](O[C@H]2c3cc(C)c(C(=O)N[C@H](CO)C(=O)O)c(O)c3-c3c(cc4c(c3O)C(=O)c3cc(OC)cc(O)c3C4=O)[C@@H]2O)O[C@@H]1C", "values": [{"measurement": "MIC", "setting": "[9]", "value": 0.8, "unit": "µg/mL"}, {"measurement": "MIC", "setting": "Candida albicans [10]", "value": 0.8, "unit": "µg/mL"}, {"measurement": "ED50", "setting": "Candida albicans [11]", "value": 7.4, "unit": "mg/kg"}, {"measurement": "MIC", "setting": "Fusarium verticillioides", "value": 0.8, "unit": "µg/mL"}, {"measurement": "MIC", "setting": "Scedosporium boydii", "value": 0.8, "unit": "µg/mL"}, {"measurement": "MIC", "setting": "Aspergillus flavus [12]", "value": 0.8, "unit": "µg/mL"}, {"measurement": "MIC", "setting": "Cryptococcus neoformans [13]", "value": 0.8, "unit": "µg/mL"}, {"measurement": "MIC", "setting": "Sporothrix schenckii", "value": 0.8, "unit": "µg/mL"}, {"measurement": "MIC", "setting": "Cryptococcus neoformans [14]", "value": 0.8, "unit": "µg/mL"}, {"measurement": "MIC", "setting": "Aspergillus fumigatus [15]", "value": 0.8, "unit": "µg/mL"}, {"measurement": "MIC", "setting": "Candida albicans [16]", "value": 0.8, "unit": "µg/mL"}, {"measurement": "MIC", "setting": "Aspergillus fumigatus [17]", "value": 0.8, "unit": "µg/mL"}, {"measurement": "MIC", "setting": "[18]", "value": 0.8, "unit": "µg/mL"}, {"measurement": "MIC", "setting": "Blastomyces dermatitidis", "value": 0.8, "unit": "µg/mL"}]}
{"smiles": "COc1ccc(N2CCN(C(=O)[C@H](O)[C@@H](O)C(=O)Nc3c(O)c4cc(O)ccc4oc3=O)CC2)cc1", "values": [{"measurement": "IC50", "setting": "[19]", "value": 100000, "unit": "nM"}]}
{"smiles": "COC(=O)/C=C/C(=O)NC[C@H](NC(=O)CN(CCOC(C)=O)CCOC(C)=O)C(=O)OCOC(=O)Cc1ccccc1.Cl", "values": [{"measurement": "MIC", "setting": "Candida tropicalis", "value": 31.3, "unit": "µg/mL"}, {"measurement": "MIC", "setting": "Candida albicans [20]", "value": 31.3, "unit": "µg/mL"}, {"measurement": "MIC", "setting": "Nakaseomyces glabratus", "value": 125, "unit": "µg/mL"}]}
{"smiles": "O=C(Nc1c(F)cccc1F)OCCCN1CCN(c2nc3ccccc3s2)CC1", "values": [{"measurement": "MIC", "setting": "Aspergillus fumigatus [21]", "value": 0.15, "unit": "µg/mL"}, {"measurement": "MIC", "setting": "Aspergillus fumigatus [22]", "value": 0.15, "unit": "µg/mL"}, {"measurement": "MIC", "setting": "Candida albicans [23]", "value": 0.26, "unit": "µg/mL"}, {"measurement": "MIC", "setting": "Candida albicans [24]", "value": 0.17, "unit": "µg/mL"}, {"measurement": "IC50", "setting": "[25]", "value": 160, "unit": "nM"}, {"measurement": "MIC", "setting": "Candida albicans [26]", "value": 0.26, "unit": "µg/mL"}, {"measurement": "MIC", "setting": "Candida albicans [27]", "value": 0.26, "unit": "µg/mL"}, {"measurement": "MIC", "setting": "Aspergillus fumigatus [28]", "value": 0.15, "unit": "µg/mL"}, {"measurement": "MIC", "setting": "Candida albicans [29]", "value": 0.26, "unit": "µg/mL"}, {"measurement": "MIC", "setting": "Candida albicans [30]", "value": 0.17, "unit": "µg/mL"}]}
{"smiles": "O=C(Nc1c(O)c2ccccc2oc1=O)[C@H](O)[C@@H](O)C(=O)N1CCN(c2ccc(Cl)cc2)CC1", "values": [{"measurement": "MIC", "setting": "Cryptococcus neoformans [31]", "value": 4, "unit": "µg/mL"}, {"measurement": "MIC", "setting": "Aspergillus fumigatus [32]", "value": 4, "unit": "µg/mL"}, {"measurement": "MIC", "setting": "Candida albicans [33]", "value": 4, "unit": "µg/mL"}, {"measurement": "MIC", "setting": "Aspergillus flavus [34]", "value": 4, "unit": "µg/mL"}]}
